According to patent publication US10875832B2, “Substituted pyrimidines for treating bacterial infections” (FORGE THERAPEUTICS, INC., priority 2015, dated 2020):
Converted amounts (≈) assume the structure as drawn.

Legend:
Assay type in all cases: cell-based
E. coli ATCC 25922 = experiment: MIC by broth microdilution, E. coli ATCC 25922, no FBS; conditions: Escherichia coli, ATCC25922, 35° C., 18-24 h
Protocol: (§1) Minimal inhibitory concentrations (MIC) were determined by the broth microdilution method in accordance with the Clinical and Laboratory Standards Institute (CLSI) guidelines. In brief, organism suspensions were adjusted to a 0.5 McFarland standard to yield a final inoculum between 3×10^5 and 7×10^5 colony-forming units (CFU)/mL. Drug dilutions and inocula were made in sterile, cation adjusted Mueller-Hinton Broth (Beckton Dickinson). An inoculum volume of 100 μL was added to wells containing 100 μL of broth with 2-fold serial dilutions of drug. All inoculated microdilution trays were incubated in ambient air at 35° C. for 18-24 h. […] Performance of the assay was monitored by the use of laboratory quality-control strains and levofloxacin, a compound with a defined MIC spectrum, in accordance with CLSI guidelines.

E. coli BW25113 = experiment: MIC by broth microdilution, E. coli BW25113, no FBS; conditions: Escherichia coli, 35° C., 18-24 h
Protocol: as §1

E. coli imp mutant = experiment: MIC by broth microdilution, E. coli imp mutant; conditions: Escherichia coli, read-out: MIC E. coli imp mutant
Protocol: as §1

[1] = system: E. coli delta to IC mutant; experiment: MIC by broth microdilution, E. coli delta tolC mutant; conditions: Escherichia coli, read-out: MIC E. coli delta to IC mutant
Protocol: as §1

S. aureus ATCC 29213 = experiment: MIC by broth microdilution, S. aureus ATCC 29213; conditions: Staphylococcus aureus, ATCC29213; 35° C., 18-24 h
Protocol: as §1

P. aeruginosa 209 = experiment: MIC by broth microdilution, P. aeruginosa 209; conditions: Pseudomonas aeruginosa, 35° C., 18-24 h
Protocol: as §1

[2] = system: P. aeruginosa 210 delta mexAB-OprM; experiment: MIC by broth microdilution, P. aeruginosa 210 delta mexAB-OprM; conditions: Pseudomonas aeruginosa, read-out: MIC P. aeruginosa 210 delta mexAB-OprM
Protocol: as §1

SMILES | MIC (E. coli ATCC 25922) [µg/mL] | MIC (E. coli BW25113) [µg/mL] | MIC (E. coli imp mutant) [µg/mL] | MIC [1] [µg/mL] | MIC (S. aureus ATCC 29213) [µg/mL] | MIC (P. aeruginosa 209) [µg/mL] | MIC [2] [µg/mL]
CN(C)C1CCN(C(=O)c2ccc(C#CC#Cc3ccc(NCc4nc[nH]c(=O)c4O)cc3)cc2)C1 (stereo not drawn) [Compound 100] | 1 to 8 (≈ 2.08 to 16.6 µM) | 1 to 8 (≈ 2.08 to 16.6 µM) | < 1 | < 1 | > 32 | > 32 | > 32
Cc1nc(C(=O)O)c(O)c(=O)n1C/C(=N/O)c1ccc(-c2ccccc2)cc1 [Compound 95, (E)-1-(2-([1,1′-biphenyl]-4-yl)-2-(hydroxyimino)ethyl)-5-hydroxy-2-methyl-6-oxo-1,6-dihydropyrimidine-4-carboxylic acid] | > 32 | > 32 | 8 to 32 (≈ 21.1 to 84.3 µM) | > 32 | > 32 | > 32 | > 32
CCN(CC)CCCNC(=O)c1ccc(C#CC#Cc2ccc(NCc3nc[nH]c(=O)c3O)cc2)cc1 [Compound 76] | 8 to 32 (≈ 16.1 to 64.3 µM) | 1 to 8 (≈ 2.01 to 16.1 µM) | 1 to 8 (≈ 2.01 to 16.1 µM) | < 1 | > 32 | > 32 | > 32
O=C(NCCN1CCCC1)c1ccc(C#CC#Cc2ccc(NCc3nc[nH]c(=O)c3O)cc2)cc1 [Compound 75] | 8 to 32 (≈ 16.6 to 66.5 µM) | 1 to 8 (≈ 2.08 to 16.6 µM) | 1 to 8 (≈ 2.08 to 16.6 µM) | < 1 | > 32 | > 32 | > 32
O=C(O)c1ccc(C#CC#Cc2ccc(NCc3nc[nH]c(=O)c3O)cc2)cc1 [Compound 87] | 1 to 8 (≈ 2.59 to 20.8 µM) | 1 to 8 (≈ 2.59 to 20.8 µM) | 1 to 8 (≈ 2.59 to 20.8 µM) | < 1 | > 32 | > 32 | > 32
CC(=O)C(Cc1ccc(C#Cc2ccc(CN3CCOCC3)cc2)cc1)n1cncc(O)c1=O (stereo not drawn) [Compound 107] | > 32 |  | > 32 | 8 to 32 (≈ 17.5 to 69.9 µM) |  |  | 
O=c1[nH]cnc(CS(=O)(=O)c2ccc(C#Cc3ccc(CN4CCOCC4)cc3)cc2)c1O [Compound 102] | 8 to 32 (≈ 17.2 to 68.7 µM) | 8 to 32 (≈ 17.2 to 68.7 µM) | 8 to 32 (≈ 17.2 to 68.7 µM) | 8 to 32 (≈ 17.2 to 68.7 µM) | > 32 | > 32 | 8 to 32 (≈ 17.2 to 68.7 µM)
CC(O)C(Cc1ccc(C#Cc2ccc(CN3CCOCC3)cc2)cc1)n1cncc(O)c1=O (stereo not drawn) [Compound 108] | > 32 |  | 8 to 32 (≈ 17.4 to 69.6 µM) | 8 to 32 (≈ 17.4 to 69.6 µM) |  |  | 
CS(=O)(=O)Cc1nc(COc2ccc(C#CC#Cc3ccccc3)cc2)[nH]c(=O)c1O [Compound 70, 5-hydroxy-6-((methylsulfonyl)methyl)-2-((4-(phenylbuta-1,3-diyn-1-yl)phenoxy)methyl)pyrimidin-4(3H)-one] | > 32 | > 32 | 1 to 8 (≈ 2.3 to 18.4 µM) | 8 to 32 (≈ 18.4 to 73.7 µM) | 8 to 32 (≈ 18.4 to 73.7 µM) | > 32 | > 32
Cn1cc(O)c(=O)cc1CNC(=O)c1ccc(C#Cc2ccccc2)cc1 [Compound 94] | > 32 | > 32 | > 32 | > 32 | > 32 | > 32 | > 32
O=c1c(O)cncn1CCc1ccc(C#Cc2ccc(CN3CCOCC3)cc2)cc1 [Compound 73, 5-hydroxy-3-(4-((4-(morpholinomethyl)phenyl)ethynyl)phenethyl)-pyrimidin-4(3H)-one] |  | 1 to 8 (≈ 2.41 to 19.3 µM) |  |  | > 32 | > 32 | > 32
CNC(=O)c1nc(C)n(CC(O)c2ccc(-c3ccccc3)cc2)c(=O)c1O (stereo not drawn) [Compound 91, 1-(2-([1,1′-biphenyl]-4-yl)-2-hydroxyethyl)-5-hydroxy-N,2-dimethyl-6-oxo-1,6-dihydropyrimidine-4-carboxamide] | > 32 | > 32 | > 32 | 8 to 32 (≈ 21.1 to 84.3 µM) | 8 to 32 (≈ 21.1 to 84.3 µM) | > 32 | > 32
Cc1nc(C(=O)O)c(O)c(=O)n1CC(O)c1ccc(C#Cc2ccccc2)cc1 (stereo not drawn) [Compound 90] | > 32 | > 32 | 1 to 8 (≈ 2.56 to 20.5 µM) | 8 to 32 (≈ 20.5 to 82 µM) | > 32 | > 32 | > 32
CCOC(=O)c1nc(C)n(CC(O)c2ccc(C#Cc3ccccc3)cc2)c(=O)c1O (stereo not drawn) [Compound 89] | > 32 | > 32 | 8 to 32 (≈ 19.1 to 76.5 µM) | > 32 | 8 to 32 (≈ 19.1 to 76.5 µM) | > 32 | > 32
O=c1[nH]cnc(CNc2ccc(-c3ccccc3)cc2)c1O [Compound 96] | > 32 | > 32 | > 32 | > 32 | > 32 | > 32 | > 32
CNC(=O)c1ccc(C#CC#Cc2ccc(NCc3nc[nH]c(=O)c3O)cc2)cc1 [Compound 72, 4-((4-(((5-hydroxy-6-oxo-1,6-dihydropyrimidin-4-yl)methyl)amino)phenyl)buta-1,3-diyn-1-yl)-N-methylbenzamide] | < 1 | < 1 | < 1 | < 1 | > 32 | > 32 | > 32
O=c1c(O)cncn1CCc1ccc(C#Cc2ccc(CN3CCOCC3)cc2)cc1 [Compound 105, 5-hydroxy-3-(4-((4-(morpholinomethyl)phenyl)ethynyl)phenethyl)pyrimidin-4(3H)-one] | 8 to 32 (≈ 19.3 to 77 µM) |  | 1 to 8 (≈ 2.41 to 19.3 µM) | 1 to 8 (≈ 2.41 to 19.3 µM) |  |  | 
COC(=O)c1ccc(C#CC#Cc2ccc(NCc3nc[nH]c(=O)c3O)cc2)cc1 [Compound 71, Methyl 4-((4-(((5-hydroxy-6-oxo-1,6-dihydropyrimidin-4-yl)methyl)amino)phenyl)buta-1,3-diyn-1-yl)benzoate] | > 32 | > 32 | > 32 | > 32 | > 32 | > 32 | > 32
CN(C)C1CCN(C(=O)c2ccc(C#CC#Cc3ccc(NCc4nc[nH]c(=O)c4O)cc3)cc2)CC1 [Compound 74] | 8 to 32 (≈ 16.1 to 64.6 µM) | 1 to 8 (≈ 2.02 to 16.1 µM) | 1 to 8 (≈ 2.02 to 16.1 µM) | < 1 | > 32 | > 32 | > 32
O=C(NCCO)c1ccc(C#CC#Cc2ccc(NCc3nc[nH]c(=O)c3O)cc2)cc1 [Compound 88] | < 1 | < 1 | < 1 | < 1 | > 32 | > 32 | > 32
O=c1[nH]cnc(CCc2ccc(C#Cc3ccc(CN4CCOCC4)cc3)cc2)c1O [Compound 104, 5-hydroxy-6-(4-((4-(morpholinomethyl)phenyl)ethynyl)phenethyl)pyrimidin-4(3H)-one] | 8 to 32 (≈ 19.3 to 77 µM) |  | 8 to 32 (≈ 19.3 to 77 µM) | 1 to 8 (≈ 2.41 to 19.3 µM) |  |  | 
O=c1[nH]cnc(CNc2ccc(C#Cc3ccc(-c4nnn[nH]4)cc3)cc2)c1O [Compound 103] | > 32 | > 32 | > 32 | 1 to 8 (≈ 2.59 to 20.8 µM) | > 32 | > 32 | > 32
CCOC(=O)c1nc(C)n(CC(=O)c2ccc(-c3ccccc3)cc2)c(=O)c1O [Compound 84, ethyl 1-(2-([1,1′-biphenyl]-4-yl)-2-oxoethyl)-5-hydroxy-2-methyl-6-oxo-1,6-dihydropyrimidine-4-carboxylate] | > 32 | > 32 | > 32 | > 32 | > 32 | > 32 | > 32
Cc1nc(C(=O)O)c(O)c(=O)n1CC(=O)c1ccc(-c2ccccc2)cc1 [Compound 82, 1-(2-([1,1′-biphenyl]-4-yl)-2-oxoethyl)-5-hydroxy-2-methyl-6-oxo-1,6-dihydro pyrimidine-4-carboxylic acid] | > 32 | > 32 | 1 to 8 (≈ 2.74 to 22 µM) | 8 to 32 (≈ 22 to 87.8 µM) | > 32 | > 32 | > 32
N#CC(Cc1ccc(C#Cc2ccc(CN3CCOCC3)cc2)cc1)n1cncc(O)c1=O (stereo not drawn) [Compound 106] | > 32 |  | 8 to 32 (≈ 18.2 to 72.6 µM) | < 1 |  |  | 
Cc1nc(C(=O)O)c(O)c(=O)n1CC(O)c1ccc(-c2ccccc2)cc1 (stereo not drawn) [Compound 83, 1-(2-([1,1′-biphenyl]-4-yl)-2-hydroxyethyl)-5-hydroxy-2-methyl-6-oxo-1,6-dihydro pyrimidine-4-carboxylic acid] | > 32 | > 32 | 1 to 8 (≈ 2.73 to 21.8 µM) | 8 to 32 (≈ 21.8 to 87.3 µM) | > 32 | > 32 | > 32
O=c1[nH]cnc(CN(CCO)c2ccc(C#Cc3ccc(CN4CCOCC4)cc3)cc2)c1O [Compound 113] | > 32 |  | > 32 | > 32 |  |  | 
O=c1c(O)cccn1C(CO)Cc1ccc(C#Cc2ccc(CN3CCOCC3)cc2)cc1 (stereo not drawn) [Compound 114, 3-hydroxy-1-(1-hydroxy-3-(4-((4-(morpholinomethyl)phenyl)ethynyl)phenyl)propan-2-yl)pyridin-2(1H)-one] | 8 to 32 (≈ 18 to 72 µM) |  | 1 to 8 (≈ 2.25 to 18 µM) | 1 to 8 (≈ 2.25 to 18 µM) |  |  | 
Cc1nc(CO)c(O)c(=O)n1CC(O)c1ccc(-c2ccccc2)cc1 (stereo not drawn) [Compound 92] | > 32 |  |  |  | > 32 | > 32 | 
CC(C)(O)C(Cc1ccc(C#Cc2ccc(CN3CCOCC3)cc2)cc1)c1nc[nH]c(=O)c1O (stereo not drawn) [Compound 112] | 8 to 32 (≈ 16.9 to 67.6 µM) |  | 1 to 8 (≈ 2.11 to 16.9 µM) | < 1 |  |  | 
